Measurements published in patent publication US20060069132A1, “Azolecarboxamide herbicides” (priority 2004, published 2006).

Columns and labels:
large crabgrass [1] = assay: Test C pre-/postemergence herbicide test; format: in vivo, Digitaria sanguinalis; conditions: for Crabgrass, Large plant response rating: 500 g ai/ha
In short: (§1)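 Pre/post spray; non-phytotoxic solvent + surfactant. Post-timing 1–4 leaves, 2–18 cm. Read-out: visual % control vs untreated, day 12–14, greenhouse.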

giant foxtail [2] = assay: Test A pre-/postemergence herbicide test; format: in vivo, Setaria faberi
In short: (§2)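 Greenhouse injury scoring (0–100, complete control = 100) at approximately ten days follows simultaneous pre- and postemergence application. Soil received a directed spray after seeding; seedlings of 2–10 cm at the one- to two-leaf stage were sprayed to runoff.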

kochia = assay: Test C pre-/postemergence herbicide test; format: in vivo, Kochia scoparia; conditions: for Kochia plant response rating: 500 g ai/ha
In short: as §1

bermudagrass = assay: Test C pre-/postemergence herbicide test; format: in vivo, Cynodon dactylon; conditions: for Bermudagrass plant response rating: 500 g ai/ha
In short: as §1

soybean = assay: Test C pre-/postemergence herbicide test; format: in vivo, Glycine max; conditions: for Soybean plant response rating: 500 g ai/ha
In short: as §1

lambsquarters = assay: Test C pre-/postemergence herbicide test; format: in vivo, Chenopodium album; conditions: for Lambsquarters plant response rating: 500 g ai/ha
In short: as §1

large crabgrass [3] = assay: Test A pre-/postemergence herbicide test; format: in vivo, Digitaria sanguinalis
In short: as §2

barnyardgrass = assay: Test A pre-/postemergence herbicide test; format: in vivo, Echinochloa crus-galli
In short: as §2

[4] = system: common (oilseed) sunflower; assay: Test C pre-/postemergence herbicide test; format: in vivo, Helianthus annuus; conditions: for Plant response rating, Sunflower / Plant response rating (0 = no effect, 100 = complete control), Sunflower: preemergence; for Plant response rating (0 = no effect, 100 = complete control), Sunflower: 62 g ai/ha
In short: as §1

giant foxtail [5] = assay: Test C pre-/postemergence herbicide test; format: in vivo, Setaria faberi; conditions: for Foxtail, Giant plant response rating: 500 g ai/ha
In short: as §1

[6] = 31 g ai/ha, preemergence, scale 0 to 100
[7] = 125 g ai/ha, scale 0 (no effect) to 100 (complete control), visual, 12 to 14 days, preemergence
[8] = 250 g ai/ha, scale 0 to 100 (0 no effect, 100 complete control), visual, 12 to 14 days, preemergence
[9] = Postemergence, 250 g ai/ha, scale 0 to 100, 0 no effect, 100 complete control
[10] = postemergence, 125 g ai/ha, scale 0 to 100
[11] = postemergence, 62 g ai/ha, scale 0 to 100
[12] = Postemergence, 500 g ai/ha, 0 to 100 scale, 0 no effect, 100 complete control
[13] = Postemergence, 2000 g ai/ha, 0 to 100 scale, 0 no effect, 100 complete control
[14] = Preemergence, 500 g ai/ha, visual rating, 0 to 100 scale (0 no effect, 100 complete control)
[15] = Preemergence, 2000 g ai/ha, visual rating, 0 to 100 scale (0 no effect, 100 complete control)
[16] = 125 g ai/ha, scale 0 (no effect) to 100 (complete control), visual, 12 to 14 days
[17] = Preemergence, scale 0 to 100, 0 no effect, 100 complete control

SMILES: C=Cn1nc(C(C)(C)C)cc1C(=O)Nc1cccc(C(C)=NO)c1 [Compound 114]
- Plant response rating, Crabgrass, Large (large crabgrass [1]; [6]): 100
- Plant response rating (0 = no effect, 100 = complete control), Crabgrass, Large (large crabgrass [1]; 62 g ai/ha, preemergence): 100
- Plant response rating, Crabgrass, Large (large crabgrass [1]; [7]): 100
- Plant response rating, Crabgrass, Large (large crabgrass [1]; [8]): 100
- Plant response rating, Crabgrass, Large (large crabgrass [1]; [9]): 100
- Plant response rating, Crabgrass, Large (large crabgrass [1]; [10]): 100
- Plant response rating, Crabgrass, Large (large crabgrass [1]; [11]): 20
- Foxtail, Giant plant response rating (giant foxtail [2]; [12]): 50
- Plant response rating, Foxtail, Giant (giant foxtail [2]; [13]): 55
- Foxtail, Giant plant response rating (giant foxtail [2]; [14]): 30
- Foxtail, Giant plant response rating (giant foxtail [2]; [15]): 45
- Plant response rating, Kochia (kochia; [6]): 90
- Plant response rating (0 = no effect, 100 = complete control), Kochia (kochia; 62 g ai/ha, preemergence): 90
- Plant response rating, Kochia (kochia; [7]): 90
- Plant response rating, Kochia (kochia; [9]): 100
- Plant response rating, Kochia (kochia; [10]): 80
- Plant response rating, Kochia (kochia; [11]): 80
- Plant response rating, Bermudagrass (bermudagrass; [6]): 10
- Plant response rating (0 = no effect, 100 = complete control), Bermudagrass (bermudagrass; 62 g ai/ha, preemergence): 50
- Plant response rating, Bermudagrass (bermudagrass; [7]): 90
- Plant response rating, Bermudagrass (bermudagrass; [8]): 100
- Plant response rating, Bermudagrass (bermudagrass; [9]): 90
- Plant response rating, Bermudagrass (bermudagrass; [10]): 90
- Plant response rating, Bermudagrass (bermudagrass; postemergence, 31 g ai/ha, scale 0 to 100): 20
- Plant response rating, Bermudagrass (bermudagrass; [11]): 60
- Plant response rating, Soybean (soybean; [6]): 60
- Plant response rating (0 = no effect, 100 = complete control), Soybean (soybean; 62 g ai/ha, preemergence): 70
- Plant response rating, Soybean (soybean; [9]): 70
- Plant response rating, Soybean (soybean; [10]): 70
- Plant response rating, Soybean (soybean; [11]): 70
- Plant response rating, Lambsquarters (lambsquarters; [6]): 40
- Plant response rating (0 = no effect, 100 = complete control), Lambsquarters (lambsquarters; 62 g ai/ha, preemergence): 80
- Plant response rating, Lambsquarters (lambsquarters; [7]): 100
- Plant response rating, Lambsquarters (lambsquarters; [9]): 100
- Plant response rating, Lambsquarters (lambsquarters; [10]): 90
- Plant response rating, Lambsquarters (lambsquarters; [11]): 90
- Crabgrass, Large plant response rating (large crabgrass [3]; [12]): 40
- Plant response rating, Crabgrass, Large (large crabgrass [3]; [13]): 60
- Crabgrass, Large plant response rating (large crabgrass [3]; [14]): 40
- Crabgrass, Large plant response rating (large crabgrass [3]; [15]): 85
- Barnyardgrass plant response rating (barnyardgrass; [12]): 30
- Plant response rating, Barnyardgrass (barnyardgrass; [13]): 40
- Barnyardgrass plant response rating (barnyardgrass; [14]): 25
- Barnyardgrass plant response rating (barnyardgrass; [15]): 40
- Plant response rating, Sunflower ([4]; 31 g ai/ha, scale 0 to 100): 30
- Plant response rating (0 = no effect, 100 = complete control), Sunflower [4]: 30
- Plant response rating, Sunflower [4, 16]: 30
- Plant response rating, Foxtail, Giant (giant foxtail [5]; [6]): 20
- Plant response rating (0 = no effect, 100 = complete control), Foxtail, Giant (giant foxtail [5]; 62 g ai/ha, preemergence): 20
- Plant response rating, Foxtail, Giant (giant foxtail [5]; [7]): 30
- Plant response rating, Foxtail, Giant (giant foxtail [5]; [8]): 40
- Plant response rating, Foxtail, Giant (giant foxtail [5]; [9]): 10
- Plant response rating, Foxtail, Giant (giant foxtail [5]; [11]): 10

SMILES: CCn1nc(C(C)(C)C)cc1C(=O)Nc1cccc(SC(F)(F)F)c1 [Compound 130]
- Plant response rating, Crabgrass, Large (large crabgrass [1]; [7]): 90
- Plant response rating, Crabgrass, Large (large crabgrass [1]; [8]): 95
- Crabgrass, Large plant response rating (large crabgrass [1]; Postemergence, scale 0 to 100): 90
- Plant response rating, Crabgrass, Large (large crabgrass [1]; [9]): 20
- Crabgrass, Large plant response rating (large crabgrass [1]; [17]): 95
- Foxtail, Giant plant response rating (giant foxtail [2]; [12]): 10
- Plant response rating, Foxtail, Giant (giant foxtail [2]; [13]): 10
- Foxtail, Giant plant response rating (giant foxtail [2]; [14]): 50
- Foxtail, Giant plant response rating (giant foxtail [2]; [15]): 55
- Plant response rating (0 = no effect, 100 = complete control), Kochia (kochia; 62 g ai/ha, preemergence): 0
- Plant response rating, Kochia (kochia; [7]): 0
- Kochia plant response rating (kochia; Postemergence, scale 0 to 100): 85
- Plant response rating, Kochia (kochia; [9]): 70
- Kochia plant response rating (kochia; [17]): 100
- Plant response rating, Kochia (kochia; [10]): 30
- Plant response rating (0 = no effect, 100 = complete control), Bermudagrass (bermudagrass; 62 g ai/ha, preemergence): 60
- Plant response rating, Bermudagrass (bermudagrass; [7]): 90
- Plant response rating, Bermudagrass (bermudagrass; [8]): 100
- Bermudagrass plant response rating (bermudagrass; Postemergence, scale 0 to 100): 90
- Plant response rating, Bermudagrass (bermudagrass; [9]): 90
- Bermudagrass plant response rating (bermudagrass; [17]): 100
- Plant response rating, Bermudagrass (bermudagrass; [10]): 85
- Plant response rating (0 = no effect, 100 = complete control), Soybean (soybean; 62 g ai/ha, preemergence): 0
- Plant response rating, Soybean (soybean; [7]): 0
- Soybean plant response rating (soybean; Postemergence, scale 0 to 100): 70
- Plant response rating, Soybean (soybean; [9]): 40
- Soybean plant response rating (soybean; [17]): 10
- Plant response rating, Soybean (soybean; [10]): 40
- Plant response rating (0 = no effect, 100 = complete control), Lambsquarters (lambsquarters; 62 g ai/ha, preemergence): 10
- Plant response rating, Lambsquarters (lambsquarters; [7]): 30
- Lambsquarters plant response rating (lambsquarters; Postemergence, scale 0 to 100): 100
- Plant response rating, Lambsquarters (lambsquarters; [9]): 100
- Lambsquarters plant response rating (lambsquarters; [17]): 80
- Plant response rating, Lambsquarters (lambsquarters; [10]): 100
- Crabgrass, Large plant response rating (large crabgrass [3]; [12]): 20
- Plant response rating, Crabgrass, Large (large crabgrass [3]; [13]): 20
- Crabgrass, Large plant response rating (large crabgrass [3]; [14]): 45
- Crabgrass, Large plant response rating (large crabgrass [3]; [15]): 60
- Barnyardgrass plant response rating (barnyardgrass; [12]): 20
- Plant response rating, Barnyardgrass (barnyardgrass; [13]): 20
- Barnyardgrass plant response rating (barnyardgrass; [14]): 40
- Barnyardgrass plant response rating (barnyardgrass; [15]): 30
- Plant response rating (0 = no effect, 100 = complete control), Sunflower [4]: 0
- Plant response rating, Sunflower [4, 16]: 0
- Sunflower plant response rating ([4]; Preemergence, 500 g ai/ha, scale 0 to 100, 0 no effect, 100 complete control): 0
- Plant response rating (0 = no effect, 100 = complete control), Foxtail, Giant (giant foxtail [5]; 62 g ai/ha, preemergence): 40
- Plant response rating, Foxtail, Giant (giant foxtail [5]; [7]): 45
- Plant response rating, Foxtail, Giant (giant foxtail [5]; [8]): 65
- Foxtail, Giant plant response rating (giant foxtail [5]; Postemergence, scale 0 to 100): 30
- Plant response rating, Foxtail, Giant (giant foxtail [5]; [9]): 15
- Foxtail, Giant plant response rating (giant foxtail [5]; [17]): 95
- Plant response rating, Foxtail, Giant (giant foxtail [5]; [10]): 10
